Experimental findings from US7393856B2, “Anti-viral uses of borinic acid complexes” (Anacor Pharmaceuticals, Inc., priority 2004, dated 2008) are described below.

A word on the IC50: it is the point on the concentration scale where inhibition reaches its midpoint. Read a low IC50 as greater potency in that assay.

The structures appear in SMILES notation.

The nature of data set [1]: In vitro anti-viral activity for HSV-1. The class given is cell-based. To be noted: HSV-1 assay; toxic concentration that kills 50% of cells; read-out: Anti-HSV-1 Activity TC50.
The test system of data set [2] is HSV-1. In words: In vitro anti-viral activity for HSV-1. The class given is cell-based. To be noted: Human alphaherpesvirus 1.
Data set [3] in a line: In vitro anti-viral activity for HSV-2. The class given is cell-based. The note with it: HSV-2 assay; toxic concentration that kills 50% of cells; read-out: Anti-HSV-2 Activity TC50.
For data set [4], the system named is HSV-2. Put plainly: In vitro anti-viral activity for HSV-2. The class given is cell-based. The note with it: Human alphaherpesvirus 2.
Data set [5] is described as follows: HepG2 2.15 anti-viral evaluation assay (in vitro anti-HBV activity). The class given is cell-based, HBV aywl strain. To be noted: human, HepG2 2.2.15 cells (produce HBV aywl strain); HepG2 2.2.15 cells; positive control; read-out: Anti-HBV TC50. The protocol: (§1) HepG2 2.2.15 cells, which produce HBV aywl strain, were plated in 96-well collagen coated microtiter plates at a density of 2.5×10^4/well with DMEM medium supplemented with 2% fetal bovine serum. One day following plating of cells, the wells were washed and the medium was replaced with complete medium containing the test compound diluted in the medium in a half-log series.
(§2) The medium was replaced once with the fresh medium containing the freshly diluted compound three days post the initial addition of the lamivudine, a positive control compound. Cell viability was determined using CellTiter 96® Reagent (Promega, Madison, Wis.) according to the manufacturer's protocol, using a Vmax plate reader (Molecular Devices, Sunnyvale, Calif.). The mixture is metabolized by the mitochondrial enzymes of metabolically active cells to a soluble formazan product, allowing the rapid quantitative analysis of cell numbers. The media was removed and replaced with 100 μL of fresh media and 10 μL of Cell Titer 96. […] Percent cell viability of compound treated wells compared to no compound controls was calculated using an in-house computer program which graphs the percent reduction in viral cytopathic effects and the cell numbers at each drug concentration relative to control values.

Data set [6] deals with HBV. Described as above. The class given is cell-based, HBV aywl strain. The protocol: as §1, §2
A short description of data set [7]: In vitro anti-viral activity for HIV-1. To be noted: HIV-1 assay; toxic concentration that kills 50% of cells; read-out: Anti-HIV-1 Activity TC50. The class given is cell-based.
For data set [8], the system named is HIV-1. Put plainly: In vitro anti-viral activity for HIV-1. The class given is cell-based. To be noted: Human immunodeficiency virus 1.
Data set [9] in a line: In vitro anti-viral activity for HIV-2. The class given is cell-based. The note with it: HIV-2 assay; toxic concentration that kills 50% of cells; read-out: Anti-HIV-2 Activity TC50.
Data set [10] concerns HIV-2. In words: In vitro anti-viral activity for HIV-2. The class given is cell-based. The note with it: Human immunodeficiency virus 2.

In the case of `Nc1nc2c(ncn2COCCO)c(=O)[nH]1` [Acyclovir, reference compound], the CC50 in [1] and in [3] was > 100 µM in each case. Also, the IC50 was 18 µM in [2] and 7.61 µM in data set [4].
For the molecule `Nc1ccn([C@@H]2CS[C@H](CO)O2)c(=O)n1` [Lamivudine], the CC50 in data set [5] was > 1 µM. In addition, in data set [6] (HBV, TC50/IC50), the “Anti-viral Selectivity Index” value is listed as >1075. The IC50 in data set [6] (Hepatitis B virus, HepG2 2.2.15 cells, positive control) was found to be 0.0093 µM.
On to `Fc1ccc(B(Oc2cccc3cccnc23)c2ccc(Cl)cc2)cc1` [Compound 15, (4-Fluorophenyl)(4-chlorophenyl)borinic acid quinolin-8-yl ester], for which the CC50 in data set [7] is 2.5 µM; in [9] it was 0.53 µM; in [1], > 32 µM; in data set [3], 32.9 µM. Also, the IC50 is 0.17 µM in data set [8], 0.04 µM in data set [10], 9.68 µM in data set [2] and > 50 µM in data set [4].
